This series is described as follows: Plasma protein binding by equilibrium dialysis, human plasma. The class given is in vitro ADME. As to conditions: human plasma in sodium citrate, pH 7.4, 37° C., read-out: human plasma protein binding (% Bound). The protocol: Membranes from Harvard/Amika with a molecular weight cutoff of 5,000 were rinsed with dH2O then placed in pH 7.4 PBS supplied by Gibco. The membranes were allowed to soak for 1 hour. A stock of the test article was pooled with Warfarin, Atropine at 2 mM in DMSO. The test article was then dosed into human plasma in sodium citrate, Rat Plasma, and Mouse Plasma to a final 10 μM concentration (0.5% DMSO v/v). The pre-soaked membranes were then placed into dialysis chambers. 500 μL of PBS was added to one side of the chamber, and 500 μL of the Matrix containing the test article was added to the other side of the chamber.
The chambers were then placed into an enclosed, heated rocker, which was pre-warmed to 37° C. and allowed to reach equilibrium for at least 22 hours. After 22 hours both sides were sampled. 100 μL of the donor side was added to 500 μL of PBS. 100 μL of the PBS side was added to 20 μL of fresh matrix. Samples then were crashed with 1:1 Acetonitrile and centrifuged at 10,000 RPM for 10 minutes. […]
Standards were prepared in a 1:5 plasma:PBS mixture at 5, 1.5, 0.5, 0.15, 0.05, 0.015 and 0.005 μM concentrations. […] Protein binding values were calculated as follows: % Bound=[(Concentration in Donor−Concentration in Receiver)/(Concentration in Donor)]×100. % Recovery=[(Concentration in donor+Concentration in Receiver)]/(Concentration in Normal Initial)]×100
A general note: Equilibrium dialysis compares concentrations on both sides of a semipermeable membrane.

Each structure is given as a SMILES string.

We go through one compound from US20050197364A1, “Amide compounds as ion channel ligands and uses thereof” (priority 2003, published 2005).

As for `O=C(Nc1ccc(C(F)(F)F)cc1)c1ccc(-c2ncccc2Cl)cc1` [Compound 18, 4-(3-Chloropyridin-2-yl)-N-(4-trifluoromethyl-phenyl)benzamide], the fraction unbound at 22 h, 10 µM is less than 0.002.
